Read-outs that look alike come from different tables or passages of the source.
Tests used:
Format in all cases: cell-based
IRAK4 = molecular target: T1, IRAK4 (Homo sapiens, UniProt Q9NWZ3); experiment: Western blot degradation of IRAK4; conditions: hPBMC Cell; 24 hours
T1 construct: expression of target proteins in cells; endogenous in cells
T1 sequence (Q9NWZ3 1-460): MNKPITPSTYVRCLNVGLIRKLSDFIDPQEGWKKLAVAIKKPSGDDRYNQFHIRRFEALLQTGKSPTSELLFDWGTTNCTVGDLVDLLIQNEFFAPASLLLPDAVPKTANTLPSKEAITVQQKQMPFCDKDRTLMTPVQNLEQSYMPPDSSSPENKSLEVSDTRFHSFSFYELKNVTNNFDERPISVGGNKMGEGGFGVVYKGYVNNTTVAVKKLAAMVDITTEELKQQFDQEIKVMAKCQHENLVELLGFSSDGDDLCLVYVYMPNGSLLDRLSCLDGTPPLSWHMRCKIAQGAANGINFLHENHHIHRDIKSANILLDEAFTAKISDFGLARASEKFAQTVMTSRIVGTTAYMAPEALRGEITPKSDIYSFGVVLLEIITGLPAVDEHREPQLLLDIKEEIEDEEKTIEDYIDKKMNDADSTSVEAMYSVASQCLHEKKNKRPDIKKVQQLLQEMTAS
Method: Conventional Western blot assay was performed to evaluate the effects of the compounds of the present disclosure on the expression of target proteins in cells.
(1) Cell Seeding and Protein Harvesting: The selected cells were processed according to the cell seeding procedure and protein harvesting procedure in Table II-2.
(2) To the collected supernatant, 5×SDS sample loading buffer was added, followed by denaturation at 95 °C for 5 minutes. The denatured samples were then separated by SDS-PAGE electrophoresis on a polyacrylamide gel. Proteins were transferred to a nitrocellulose membrane (0.45 μm NC membrane), blocked with blocking buffer at room temperature for 1 hour, and subjected to antibody incubation and development procedures according to the antibody manufacturer's instructions (Cell Signaling Technology).
Half-Maximal Degradation Concentration value (the drug concentration required for degrading proteins by 50%, abbreviated as DC50) reads method: comparing the grayscale values of Western blot bands from drug-treated samples with those from blank DMSO-treated controls, and identifying the drug concentration range at which the grayscale value is half that of the DMSO-treated control bands.
DC50 values can be calculated using ImageJ software to measure grayscale values of Western blot bands from drug-treated samples. The concentration-response curve is fitted to estimate the drug concentration corresponding to half the grayscale value.
Target protein remaining (%) refers to the percentage of target protein remaining in cells after treatment with protein degrader compounds.
Calculation method for target protein remaining (%): Use ImageJ software to measure grayscale values of Western blot bands from drug (protein degrader)-treated samples. The grayscale value of drug-treated bands is divided by that of internal control protein bands, and the resulting quotient is normalized to obtain the relative percentage of remaining target protein after protein degrader treatment.
Target protein degradation rate (%)=1−target protein remaining (%).

[1] = system: Human Acute T Lymphoblastic Leukemia Cells (Molt-4); experiment: Inhibition of Molt-4 cell proliferation (CellTiter luminescent viability); conditions: Homo sapiens; for inhibition at 0.01 µM: read-out: Inhibition Rate at 10 nM (%); for inhibition at 0.5 µM: read-out: Inhibition Rate at 500 nM (%)
Method: (§1) The tumor cells used herein were cultured in a cell culture medium listed in table 3 at 37 °C in an incubator with 5% CO2. Prior to experimentation, all cell lines used were correctly identified by STR profiling, and tested negative for mycoplasma contamination using a mycoplasma detection kit through routine screenings.
(§2) The IC50 values of the compounds of the present disclosure (including the compounds in Table 1, Table 2, and Examples 1-468) were determined using the CellTiter-Meiluncell Luminescent Cell Viability Assay Kit from Dalian Meilun Biotech Co., Ltd. The detailed procedure is as follows: Tumor cells were seeded in 96-well cell culture plates at the densities specified in Table 4. On the following day, the test compounds of the present disclosure were subjected to serial dilution. The dilution can be performed according to one of the following two methods: • (1) The first dilution method: The test compounds of the present disclosure (including the compounds in Table 1, Table 2, and Examples 1-468) were subjected to 5-fold serial dilutions starting from a highest concentration of 2000 μM, resulting in a total of 9 concentrations from high to low (2000, 400, 80, 16, 3.2, 0.64, 0.128, 0.0256, 0.00512 μM). Subsequently, 0.5 μL of the test compound dilution was transferred into the 96-well plate containing the cells, with each well containing 100 μL of cell culture medium. […] Into the 96-well plate, the diluted test compounds and corresponding detection reagents were added, resulting in final test compound concentrations of 500 nM and 10 nM, respectively. The experimental procedure is described below using the diluted 2 μM test compound as an example.
(§3) 0.5 μL of the aforementioned diluted compound of the present disclosure (including the compounds in Table 1, Table 2, and Examples 1-468) was added to the seeded cells in 100 μL of medium, yielding a final test compound concentration of 10 nM. After the cells were treated with the compounds of the present disclosure for a specified period, the cell viability assay reagent was added to the culture medium according to the kit's instructions to determine cell viability. […] All controls were treated using the same procedure as the compounds of the present disclosure. The growth inhibition curves for the compounds of the present disclosure were plotted using Prism GraphPad software, and the IC50 values were calculated therefrom.

[2] = system: Human Multiple myeloma cell line (MM.1S); experiment: Inhibition of MM.1S cell proliferation (CellTiter luminescent viability); conditions: Homo sapiens, MM1.S, Table IA5, IRAK4 inhibitor-based, 96 hours
Method: as §1, §2, §3

[3] = MOLT-4, 96 h, Table IA2, IRAK4 inhibitor-based, Molt-4, 10 nM, 96 hours
[4] = MOLT-4, 96 h, Table IA2, IRAK4 inhibitor-based, Molt-4, 500 nM, 96 hours

With `COc1cc2nn(C3CCN(Cc4ccc5c(c4)CN(N4CCC(=O)NC4=O)C5=O)CC3)cc2cc1NC(=O)c1cccc(C(F)(F)F)c1` [GT-04876, N-(2-(1-((2-(2,4-dioxotetrahydropyrimidin-1(2H)-yl)-1-oxoisoindolin-5-yl)methyl)piperidin-4-yl)-6-methoxy-2H-indazol-5-yl)-3-(trifluoromethyl)benzamide] the “Degradation of substrate protein IRAK4 (substrate protein remaining %)” value (“Degradation … (substrate protein remaining %)” below) (IRAK4) was “A (0%≤substrate protein remaining %≤80%)”.

For `COc1cc2nn(C3CCN(CC4CCN(c5ccc6c(c5)C(=O)N(N5CCC(=O)NC5=O)C6=O)CC4)CC3)cc2cc1NC(=O)c1cccc(C(F)(F)F)c1` [GT-04877, N-(2-(1-((1-(2-(2,4-dioxotetrahydropyrimidin-1(2H)-yl)-1,3-dioxoisoindolin-5-yl)piperidin-4-yl)methyl)piperidin-4-yl)-6-methoxy-2H-indazol-5-yl)-3-(trifluoromethyl)benzamide], the “Degradation … (substrate protein remaining %)” value (IRAK4) was “A (0%≤substrate protein remaining %≤80%)”.

`COc1ccc2cn(C3CCN(Cc4ccc5c(c4)CN(N4CCC(=O)NC4=O)C5=O)CC3)nc2c1NC(=O)c1cccc(C(F)(F)F)c1` [GT-04884, N-(2-(1-((2-(2,4-dioxotetrahydropyrimidin-1(2H)-yl)-1-oxoisoindolin-5-yl)methyl)piperidin-4-yl)-6-methoxy-2H-indazol-7-yl)-3-(trifluoromethyl)benzamide] was tested, and the “Degradation … (substrate protein remaining %)” value (IRAK4) was “A (0%≤substrate protein remaining %≤80%)”.

In the case of `COc1ccc2cn(C3CCN(CC4CCN(c5ccc6c(c5)C(=O)N(N5CCC(=O)NC5=O)C6=O)CC4)CC3)nc2c1NC(=O)c1cccc(C(F)(F)F)c1` [GT-04885, N-(2-(1-((1-(2-(2,4-dioxotetrahydropyrimidin-1(2H)-yl)-1,3-dioxoisoindolin-5-yl)piperidin-4-yl)methyl)piperidin-4-yl)-6-methoxy-2H-indazol-7-yl)-3-(trifluoromethyl)benzamide], the “Degradation … (substrate protein remaining %)” value (IRAK4) is reported as “A (0%≤substrate protein remaining %≤80%)”.

For `O=C1CCN(N2C(=O)c3ccc(N4CCC(CN5CCN(c6ccc7c(c6)nc(NC(=O)c6cccc(C(F)(F)F)c6)n7[C@H]6CC[C@@H](CO)CC6)CC5)CC4)cc3C2=O)C(=O)N1` [GT-05055, N-(5-(4-((1-(2-(2,4-dioxotetrahydropyrimidin-1(2H)-yl)-1,3-dioxoisoindolin-5-yl)piperidin-4-yl)methyl)piperazin-1-yl)-1-((1s,4s)-4-(hydroxymethyl)cyclohexyl)-1H-benzo[d]imidazol-2-yl)-3-(trifluoromethyl)benzamide], the “Degradation … (substrate protein remaining %)” value (IRAK4) was “A (0%≤substrate protein remaining %≤80%)”.

`O=C1CCN(N2C(=O)c3ccc(N4CCC(CN5CCC(n6cc(NC(=O)c7cnn8ccc(N9C[C@H]%10C[C@@H]9CO%10)nc78)c(C(F)F)n6)CC5)CC4)cc3C2=O)C(=O)N1` [GT-05056, 5-((1R,4R)-2-oxa-5-azabicyclo[2.2.1]heptan-5-yl)-N-(3-(difluoromethyl)-1-(1-((1-(2-(2,4-dioxotetrahydropyrimidin-1(2H)-yl)-1,3-dioxoisoindolin-5-yl)piperidin-4-yl)methyl)piperidin-4-yl)-1H-pyrazol-4-yl)pyrazolo[1,5-a]pyrimidine-3-carboxamide] was tested, and the “Degradation … (substrate protein remaining %)” value (IRAK4) was “A (0%≤substrate protein remaining %≤80%)”.

For `COc1cc2nn(C3CCN(Cc4ccc5c(c4)C(=O)N(N4CCC(=O)NC4=O)C5=O)CC3)cc2cc1NC(=O)c1cccc(C(F)(F)F)c1` [GT-05078, N-(2-(1-((2-(2,4-dioxotetrahydropyrimidin-1(2H)-yl)-1,3-dioxoisoindolin-5-yl)methyl)piperidin-4-yl)-6-methoxy-2H-indazol-5-yl)-3-(trifluoromethyl)benzamide], the “Degradation … (substrate protein remaining %)” value (IRAK4) was “A (0%≤substrate protein remaining %≤80%)”.

For `C[C@@H]1CNC(=O)c2cc3ccc(C(=O)Nc4cnn(Cc5ccc(N6CCC(N7CCN(CC8CCN(c9cccc%10c9C(=O)N(N9CCC(=O)NC9=O)C%10=O)CC8)CC7)CC6)cc5)c4)nc3n21` [GT-08344, (R)—N-(1-(4-(4-(4-((1-(2-(2,4-dioxotetrahydropyrimidin-1(2H)-yl)-1,3-dioxoisoindolin-4-yl)piperidin-4-yl)methyl)piperazin-1-yl)piperidin-1-yl)benzyl)-1H-pyrazol-4-yl)-9-methyl-6-oxo-6,7,8,9-tetrahydropyrido[3′,2′: 4,5]pyrrolo[1,2-a]pyrazine-2-carboxamide], the inhibition at 0.01 µM ([1]; MOLT-4, Molt-4, 10 nM, Table IN3) was 5 to 10% and the inhibition at 0.5 µM ([1]; MOLT-4, Molt-4, 500 nM, Table IN3) was 80 to 100%.

`COc1cc2nn([C@H]3CC[C@H](CN4C[C@H]5C[C@@H]4CN5c4ccc5c(c4)C(=O)N(N4CCC(=O)NC4=O)C5=O)CC3)cc2cc1NC(=O)c1cccc(C(F)(F)F)c1` [GT-08663, N-(2-((1R,4r)-4-(((1R,4R)-5-(2-(2,4-dioxotetrahydropyrimidin-1(2H)-yl)-1,3-dioxoisoindolin-5-yl)-2,5-diazabicyclo[2.2.1]heptan-2-yl)methyl)cyclohexyl)-6-methoxy-2H-indazol-5-yl)-3-(trifluoromethyl)benzamide] gave an inhibition at 0.01 µM [1, 3] of 10 to 15% and an inhibition at 0.5 µM [1, 4] of 15 to 20%.

Compound `COc1cc2nn([C@H]3CC[C@H](CN4CC5CCC(C4)N5c4ccc5c(c4)C(=O)N(N4CCC(=O)NC4=O)C5=O)CC3)cc2cc1NC(=O)c1cccc(C(F)(F)F)c1` [GT-08665, N-(2-((1r,4r)-4-((8-(2-(2,4-dioxotetrahydropyrimidin-1(2H)-yl)-1,3-dioxoisoindolin-5-yl)-3,8-diazabicyclo[3.2.1]octan-3-yl)methyl)cyclohexyl)-6-methoxy-2H-indazol-5-yl)-3-(trifluoromethyl)benzamide] has an inhibition at 0.01 µM [1, 3] of 15 to 20% and an inhibition at 0.5 µM [1, 4] of 15 to 20%.

In the case of `Cn1c(=O)n(C2CCC(=O)NC2=O)c2cccc(C#CCOC3CCN(C[C@H]4CC[C@H](n5cc(NC(=O)c6cnn7ccc(N8C[C@H]9C[C@@H]8CO9)nc67)c(C(F)F)n5)CC4)CC3)c21` (stereo partly shown) [KT-474, reference compound], the inhibition at 0.01 µM ([2]; 10 nM, read-out: Inhibition Rate at 10 nM (%)) is reported as 5 to 10%, the inhibition at 0.5 µM ([2]; 500 nM, read-out: Inhibition Rate at 500 nM (%)) is reported as 15 to 20% and the inhibition at 0.01 µM [1, 3] is reported as 7 to 10%. For the same compound, the inhibition at 0.5 µM [1, 4] was 7 to 10%.

Compound `Cc1cc(-c2nc(C(=O)Nc3cc4oc(N5CCOCC5)nc4nc3N3CC[C@@H](O)C3)co2)ccn1` [emavusertib, Emavusertib, reference compound] has an inhibition at 0.01 µM [1, 3] of 3 to 7% and an inhibition at 0.5 µM [1, 4] of 0 to 3%.

Source: patent US20260364184A1, “COMPOUND BASED ON OXOISOINDOLINYL-SUBSTITUTED TETRAHYDROPYRIMIDINE-DIONE AND USE THEREOF” (GLUETACS THERAPEUTICS (SHANGHAI) CO., LTD., priority 2023, published 2026)
